{"source": "patent US4731109A", "about": "“Herbicidal 2-haloacetanilides” (Monsanto Company, priority 1982, dated 1988)", "key": {"[1]": {"test_system": "corn", "test": "Greenhouse pre-emergence GR15/GR85 selectivity test", "type": "in vivo", "settings": "Table IV", "method_in_brief": "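Active ingredient mixed into cover soil over seeded pans (pre-emergence soil incorporation), initial overhead irrigation equal to 0.64 cm rainfall, then subirrigation. Scored about 2-3 weeks after seeding; GR15 (crop) and GR85 (weed) rates in kg/ha, selectivity factor = crop GR15 / weed GR85.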"}, "[2]": {"test_system": "Yellow Nutsedge", "test": "Greenhouse pre-emergence GR15/GR85 selectivity test", "type": "in vivo", "settings": "Table IV"}, "[3]": {"test_system": "Quackgrass", "test": "Greenhouse pre-emergence GR15/GR85 selectivity test", "type": "in vivo", "settings": "Table IV"}, "[4]": {"test_system": "red rice", "test": "Greenhouse pre-emergence GR15/GR85 selectivity test", "type": "in vivo", "settings": "Table XVI", "method_in_brief": "(§1)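 Top soil was compacted in pans, seeds placed on the surface, and the covering soil mixed with a known quantity of active ingredient before being spread over them. After an initial overhead watering, pans were subirrigated and scored 2-3 weeks later.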"}, "[5]": {"test_system": "seedling johnsongrass", "test": "Greenhouse pre-emergence GR15/GR85 selectivity test", "type": "in vivo", "settings": "Table XVI", "method_in_brief": "as §1"}, "[6]": {"test_system": "fall panicum", "test": "Greenhouse pre-emergence GR15/GR85 selectivity test", "type": "in vivo", "settings": "Table XVI", "method_in_brief": "as §1"}, "[7]": {"test_system": "shattercane", "test": "Greenhouse pre-emergence GR15/GR85 selectivity test", "type": "in vivo", "settings": "Table XVI", "method_in_brief": "as §1"}, "[8]": {"test_system": "Texas panicum", "test": "Greenhouse pre-emergence GR15/GR85 selectivity test", "type": "in vivo", "settings": "Table XVI", "method_in_brief": "as §1"}, "[9]": {"test_system": "alexandergrass", "test": "Greenhouse pre-emergence GR15/GR85 selectivity test", "type": "in vivo", "settings": "Table XV", "method_in_brief": "as §1"}, "[10]": {"test_system": "itchgrass", "test": "Greenhouse pre-emergence GR15/GR85 selectivity test", "type": "in vivo", "settings": "Table XVI", "method_in_brief": "as §1"}, "[11]": {"test_system": "rape", "test": "Greenhouse pre-emergence GR15/GR85 selectivity test", "type": "in vivo", "settings": "Table XV", "method_in_brief": "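Pre-emergence soil-incorporation test: seeded pans were covered with topsoil mixed with active ingredient (in solvent or as wettable powder), overhead-irrigated (0.64 cm) or not, then subirrigated. Plants were scored about 2-3 weeks after treatment. GR15/GR85 rates are in kg/ha, and selectivity factor is crop GR15 divided by weed GR85.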"}, "[12]": {"test_system": "Quackgrass", "test": "Herbicidal effect in a variety of soil types", "type": "in vivo", "settings": "Table XVII B; for selectivity factor (GR15/GR85): in soybeans"}, "[13]": {"test_system": "soybeans", "test": "Herbicidal effect in a variety of soil types", "type": "in vivo", "settings": "Table XVII B"}, "[14]": {"test_system": "wild proso millet", "test": "Greenhouse pre-emergence GR15/GR85 selectivity test", "type": "in vivo, wild proso millet (panicum milicaeum)", "settings": "Table XVI", "method_in_brief": "as §1"}}, "data": [{"smiles": "Cc1cccc(C(F)(F)F)c1N(COC(C)C)C(=O)CCl", "note": "[Example 4, N--(isopropoxymethyl)-2'-trifluoromethyl-6'-methyl-2-chloroacetanilide]", "values": [{"measurement": "GR15", "setting": "[1]; Replicate #1", "result": 1.7, "unit": "Kg/Ha"}, {"measurement": "GR15", "setting": "[1]; Replicate #2", "result": 2.0, "unit": "Kg/Ha"}, {"measurement": "GR85", "setting": "[2]; Replicate #1", "result": 0.28, "unit": "Kg/Ha"}, {"measurement": "GR85", "setting": "[2]; Replicate #2", "result": 0.22, "unit": "Kg/Ha"}, {"measurement": "selectivity factor (GR15/GR85)", "setting": "[2]; yellow nutsedge in corn, Replicate #1", "result": 6}, {"measurement": "selectivity factor (GR15/GR85)", "setting": "[2]; yellow nutsedge in corn, Replicate #2", "result": 8.5}, {"measurement": "selectivity factor (GR15/GR85)", "setting": "[2]; yellow nutsedge in soybeans, Replicate #1", "result": 4}, {"measurement": "selectivity factor (GR15/GR85)", "setting": "[2]; yellow nutsedge in soybeans, Replicate #2", "result": 7.5}, {"measurement": "GR85", "setting": "[3]; Replicate #1", "result": 0.33, "unit": "Kg/Ha"}, {"measurement": "GR85", "setting": "[3]; Replicate #2", "result": 0.18, "unit": "Kg/Ha"}, {"measurement": "selectivity factor (GR15/GR85)", "setting": "[3]; quackgrass in corn, Replicate #1", "result": 5}, {"measurement": "selectivity factor (GR15/GR85)", "setting": "[3]; quackgrass in corn, Replicate #2", "result": 11}, {"measurement": "selectivity factor (GR15/GR85)", "setting": "[3]; quackgrass in soybeans, Replicate #1", "result": 3}, {"measurement": "selectivity factor (GR15/GR85)", "setting": "[3]; quackgrass in soybeans, Replicate #2", "result": 9.5}, {"measurement": "GR85 Rate", "setting": "[4]", "result": 0.42, "unit": "Kg/Ha"}, {"measurement": "selectivity factor (GR15/GR85)", "setting": "[4]; in lima beans", "result": "> 2.7"}, {"measurement": "selectivity factor (GR15/GR85)", "setting": "[4]; in peanuts", "result": 2.3}, {"measurement": "GR85 Rate", "setting": "[5]", "result": 0.51, "unit": "Kg/Ha"}, {"measurement": "selectivity factor (GR15/GR85)", "setting": "[5]; in lima beans", "result": "> 2.2"}, {"measurement": "selectivity factor (GR15/GR85)", "setting": "[5]; in peanuts", "result": 1.9}, {"measurement": "GR85 Rate", "setting": "[6]", "result": 0.13, "unit": "Kg/Ha"}, {"measurement": "selectivity factor (GR15/GR85)", "setting": "[6]; in lima beans", "result": "> 8.6"}, {"measurement": "selectivity factor (GR15/GR85)", "setting": "[6]; in peanuts", "result": 7.5}, {"measurement": "GR85 Rate", "setting": "[7]", "result": 0.51, "unit": "Kg/Ha"}, {"measurement": "selectivity factor (GR15/GR85)", "setting": "[7]; in lima beans", "result": "> 2.2"}, {"measurement": "selectivity factor (GR15/GR85)", "setting": "[7]; in peanuts", "result": 1.9}, {"measurement": "GR85 Rate", "setting": "[8]", "result": 0.56, "unit": "Kg/Ha"}, {"measurement": "selectivity factor (GR15/GR85)", "setting": "[8]; in lima beans", "result": "> 2"}, {"measurement": "selectivity factor (GR15/GR85)", "setting": "[8]; in peanuts", "result": 1.8}, {"measurement": "GR85 Rate", "setting": "[9]", "result": 0.42, "unit": "Kg/Ha"}, {"measurement": "selectivity factor (GR15/GR85)", "setting": "[9]; in rape", "result": "> 2.7"}, {"measurement": "GR85 Rate", "setting": "[10]", "result": 0.50, "unit": "Kg/Ha"}, {"measurement": "selectivity factor (GR15/GR85)", "setting": "[10]; in lima beans", "result": "> 2.2"}, {"measurement": "selectivity factor (GR15/GR85)", "setting": "[10]; in peanuts", "result": 2}, {"measurement": "GR15 Rate", "setting": "[11]", "result": "> 1.12", "unit": "Kg/Ha"}, {"measurement": "GR85", "setting": "[12]; Drummer silty clay", "result": 0.11, "unit": "Kg/Ha"}, {"measurement": "GR85", "setting": "[12]; Florida muck", "result": 0.67, "unit": "Kg/Ha"}, {"measurement": "GR85", "setting": "[12]; Florida sand", "result": 0.25, "unit": "Kg/Ha"}, {"measurement": "GR85", "setting": "[12]; Ray silt loam", "result": 0.13, "unit": "Kg/Ha"}, {"measurement": "GR85", "setting": "[12]; Sarpy silty clay", "result": 0.39, "unit": "Kg/Ha"}, {"measurement": "GR85", "setting": "[12]; Wabash silty clay", "result": 0.24, "unit": "Kg/Ha"}, {"measurement": "selectivity factor (GR15/GR85)", "setting": "[12]; Drummer silty clay", "result": 20}, {"measurement": "selectivity factor (GR15/GR85)", "setting": "[12]; Florida muck", "result": "> 3"}, {"measurement": "selectivity factor (GR15/GR85)", "setting": "[12]; Florida sand", "result": 9}, {"measurement": "selectivity factor (GR15/GR85)", "setting": "[12]; Ray silt loam", "result": 23}, {"measurement": "selectivity factor (GR15/GR85)", "setting": "[12]; Sarpy silty clay", "result": 5.5}, {"measurement": "selectivity factor (GR15/GR85)", "setting": "[12]; Wabash silty clay", "result": 12.5}, {"measurement": "GR15", "setting": "[13]; Drummer silty clay", "result": 2.2, "unit": "Kg/Ha"}, {"measurement": "GR15", "setting": "[13]; Florida muck", "result": "> 2.2", "unit": "Kg/Ha"}, {"measurement": "GR15", "setting": "[13]; Florida sand", "result": 2.2, "unit": "Kg/Ha"}, {"measurement": "GR15", "setting": "[13]; Ray silt loam", "result": 3.0, "unit": "Kg/Ha"}, {"measurement": "GR15", "setting": "[13]; Sarpy silty clay", "result": 2.2, "unit": "Kg/Ha"}, {"measurement": "GR15", "setting": "[13]; Wabash silty clay", "result": 3.0, "unit": "Kg/Ha"}, {"measurement": "GR85 Rate", "setting": "[14]", "result": 0.47, "unit": "Kg/Ha"}, {"measurement": "selectivity factor (GR15/GR85)", "setting": "[14]; in lima beans", "result": "> 2.4"}, {"measurement": "selectivity factor (GR15/GR85)", "setting": "[14]; in peanuts", "result": 2.1}]}]}
